How the values were obtained:
[1] = tested on: NTC CTRL U266 MM cells; test: NTC CTRL U266 in vivo model; settings: 10 mg/kg/day subcutaneously
Excerpt: Supplementary Figure 7. ULK3 ablation suppresses MM cell growth. A. Immunoblotting for ULK3 expression in parental, NTC CTRL and ULK3 KO U266 cells. Of note, NTC CTRL and ULK3 KO were used for the in vivo ULK3 KO model. Densitometric quantification values are annotated on the blot. B. Mice (n = 20/group) were tail vein injected […]
with 1 x106 NTC CTRL and ULK3 KO U266 MM cells. […]
onset of the disease compared to NTC CTRL . (C) Representative confocal microscopy images of formalin fixed, paraffin embedded tumors (5-micron sections), stained for human mitochondria (hMITO) as a readout of MM cells colocalization. Alexa Fluor Plus 488 goat anti-mouse were used as secondary antibody. (D) MTS showing the inhibitory profile of MA9060 on NTC CTRL and ULK3 KO for U266 cell line. Treatment with MA9060 (0-100 uM) for 48h show reduced activity of MA9060 in ULK3 KO cell lines. E. Mice were divided respectively in two groups, vehicle control (n = 10, β-HCD Captisol) or MA9-060 (n = 10). Treatment started at day 20 (M-F, 10 mg/kg/day subcutaneously). MA9-060 treatment improves overall survival in the NTC CTRL arm (median 41 days post-tumor […]
38 For MA9 therapy efficacy, mice were treated with vehicle (n=10) or MA9 (10 mg/kg/day, 39 subcutaneously, M-F from day 20; n=10) (Supplementary Fig. 7E, F). Survival and toxicity 40 (weight, clinical signs) was monitored. […]

[2] = tested on: autophagy proteins in U266 MM cells; test: Immunoblot densitometry of autophagy proteins; format: cell-based, Human; settings: U266, 6h, MA9-060 1μM, JQ1 10μM, CQ 1μM
Protocol: Figure 3. Anti-myeloma activity of the MA9–060 autophagy inhibitor. A. Chemical structure of the autophagy inhibitor MA9–060. […] Chloroquine (CQ) (1μM) served as a positive control for autophagy inhibition. C. […] Hoechst 33342 dye appears here as the nuclear blue staining (Multiple comparisons ANOVA, p <0.0001).
157 5872S). Protein concentration was quantified by Thermo Scientific™ Pierce™ BCA™ Protein
30 μg protein was loaded to 10%-15% gel and ran at
159 100V for 2 hours. Later protein was transferred to PVDF membrane and blocked with 5% skimmed
160 milk in TBST (10 mM Tris/HCl pH8.0, 0.12M NaCl, 0.1% Tween 20) containing 5% BSA [8] for
163 at 4°C overnight. Membranes were washed 3 times,10 minutes with TBS. Then incubated with
164 appropriate secondary antibodies at 1:1000 ratio in skimmed milk or 2% BSA. The membranes
165 were washed again 3 times for 10 minutes with TBST. ECL reagents were added to the membrane
166 and blot was developed by LICOR Imaging Studio.
167 All immunoblotting assays were performed at least in three replicates and representative
168 images are shown. Commercially available antibodies and their dilutions are listed in
169 Supplementary Table 5. Immunoblotting images were acquired and quantified using LICOR
170 Image Studio Quant software. […]

Cc1cnc(Nc2ccc(C3CCN(C)CC3)c(F)c2)nc1Nc1ccc(Cl)c(NS(=O)(=O)C(C)(C)C)c1 [MA9060]
toxicity (weight loss <20%, ruffled hair) [1]: did not show any signs of toxicity
median overall survival ([1]; NTC CTRL arm, M-F from day 20): 41 days
LC3II densitometry ([2]; CTRL 0.34): 0.10
LC3I densitometry ([2]; CTRL 3.01): 1.78
ULK1 densitometry ([2]; CTRL 7.21): 2.44
ULK3 densitometry ([2]; CTRL 15.17): 3.33
